Structures can show the parent of a compound that is named as a salt. Where two headings read alike, the source gives them in different places.
Assays:
[1] = system: Mycobacterium terrae bacteria; assay: bacterial suspension test; assay type: cell-based; details: for Germicidal Efficacy: summary Table 14
Experimental: In Examples 1 to 3, which follow, several germicidal solutions containing either the 4-fluoro-, 4-chloro-, or 4-bromo-phthalaldehyde compound were tested to determine their effectiveness in killing at least 1×10^6/mL of Mycobacterium terrae bacteria using a bacterial suspension test. The bacterial suspension test that was employed is described in Section VII.
The solutions were prepared by adding the appropriate amounts of the germicidal compounds to an aqueous solution. Unless otherwise mentioned all concentrations reported herein are expressed in (w/v)%. The pH of the solution was not adjusted. The tests were conducted at a temperature of about 20° C. (room temperature). The results are presented in terms of log reductions/mL. It is understood that these examples, as well as the other examples herein, are to be construed as merely illustrative, and not limiting.
In this test method, 9 mL of the germicide to be tested is placed in a tube, put into a water bath and allowed to come to the desired temperature. One mL of the test organism, including at least 7 logs/mL of Mycobacterium terrae bacteria, is added to the 9 mL of the germicide to be tested. […] It will be appreciated by those skilled in the art that other concentrations may be utilized by proper dilution and accounting.
At appropriate time intervals, 1 mL aliquots of the germicide-cell suspension were removed and added directly into 9 mL of a 1% glycine solution (neutralizer) and mixed thoroughly to neutralize the germicide in the transferred suspension. The glycine solution was prepared from solid glycine, which is available from VWR Scientific Products, among others. The above-identified 10 mL neutralized solution was then poured through a membrane filter having an average pore size of 0.45 micrometers. The filter was then rinsed twice with at least 150 mL of the 1% glycine solution per rinse. The filter was then placed on an agar plate and incubated for twenty-one days at 37° C. In the above procedure, if dilution was needed, then the 1 mL germicidal-cell suspension was diluted in 99 mL of a phosphate buffer before addition to the 9 mL of the 1% glycine solution. The phosphate buffer was DiLu-LoK™ Butterfields Phosphate Buffer, available from Hardy Diagnostics, of Santa Maria, Calif.
The surviving colonies are then counted. The data is plotted as S/So vs. time. So is the initial count of the bacteria in the above 10 mL solution which is at least 10^6 bacteria/mL, and S is the surviving bacteria from the above filter on the agar plate. The results of the experiments were presented in terms of log reductions. Log reduction is the difference between log(So) and log(S). As one example, if log(So)=6.2, and if there were 100 survivors, then the log(S)=2, and the log reduction was reported as 4.2.

solubility in water = details: for Concentration, Saturated: saturated aqueous germicidal solution, pH not adjusted

## 4-pyridinyl-propanedial
[1]; Saturated (˜2.3% w/v), 5 min, 20° C.
  Log Reductions/mL: 4.0 log reductions/mL
Solubility in water
  Concentration, Saturated: (˜2.3%) w/v %

## O=CC(c1ccccc1)C(O)S(=O)(=O)[O-].[Na+] (stereo not shown) [1-hydroxy-3-oxo-2-phenyl-propane-1-sulfonic acid, sodium salt]
[1]; 0.6%, 20° C., 60 min, sodium salt
  Log Reductions/mL: Total Kill
[1]; 2.5%, 20° C., 10 min, sodium salt
  Log Reductions/mL: Total Kill
[1]; 2.5%, 20° C., 30 min
  Log Reductions/mL: Total Kill
[1]; 9.4%, 20° C., 30 min
  Log Reductions/mL: Total Kill
[1]; Mycolicibacter terrae, 0.25 h, 0.6%, 20° C., 15 min, read-out: Log Reductions/mL
  log reduction at 0.6 %: 2.4
[1]; Mycolicibacter terrae, 0.5 h, 0.6%, 20° C., 30 min, read-out: Log Reductions/mL
  log reduction at 0.6 %: 3.5

## O=CC(c1nc2ccccc2o1)C(O)S(=O)(=O)O (stereo not shown) [2-benzooxazol-2-yl-1-hydroxy-3-oxo-propane-1-sulfonic acid, sodium salt]
[1]; Mycolicibacter terrae, 1 h, 11.1%, 20° C., 60 min, read-out: Log Reductions/mL
  log reduction at 11.1 %: 5

## O=CC(C=O)c1cccc(C(=O)O)c1[N+](=O)[O-] [3-(1-formyl-2-oxoethyl)-2-nitro-benzoic acid]
Solubility in water
  Concentration, Saturated: (˜2.1%) w/v %

## O=Cc1ccc(Br)cc1C=O [4-bromo-phthalaldehyde]
[1]; 0.1%, 20° C., 30 minutes
  Log Reductions/mL: Total Kill
[1]; Mycolicibacter terrae, 10 min, 0.1%, 20° C., 10 minutes, read-out: Log Reductions/mL
  log reduction at 0.1 %: 5.6

## O=Cc1ccc(Cl)cc1C=O [4-chloro-phthalaldehyde]
[1]; 2.7 w/v % in 20% isopropanol, 20° C., 5 min
  Log Reductions/mL: Total Kill
[1]; Mycolicibacter terrae, 5 min, 0.2 w/v %, 20° C., 5 min, read-out: Log Reductions/mL
  log reduction at 0.2 %: 5.9

## O=Cc1ccc(F)cc1C=O [4-fluoro-phthalaldehyde]
[1]; 0.25%, 20° C., 60 minutes
  Log Reductions/mL: Total Kill
[1]; Mycolicibacter terrae, 0.5 h, 0.25%, 20° C., 30 minutes, read-out: Log Reductions/mL
  log reduction at 0.25 %: 5.6

## O=Cc1ccccc1C(O)S(=O)(=O)[O-].[Na+] (stereo not shown) [(2-formyl-phenyl)-hydroxy-methane sulfonic acid, sodium salt]
[1]; 9.1%, 20° C., 5 min, listed as (2-formyl-phenyl)-hydroxy-methane sulfonate, sodium salt
  Log Reductions/mL: confluent
[1]; 9.1%, 20° C., 5 min, listed as H-SULF, sodium salt
  Log Reductions/mL: Confluent
[1]; Mycolicibacter terrae, 0.5 h, 20° C., 30 min, read-out: Log Reductions/mL
  log reduction at 8.9 %: 2
[1]; Mycolicibacter terrae, 1 h, 20° C., 60 min, read-out: Log Reductions/mL
  log reduction at 8.9 %: 3.5
[1]; Mycolicibacter terrae, 2 h, 20° C., 120 min, read-out: Log Reductions/mL
  log reduction at 8.9 %: 5.7

## O=Cc1cccc(C=O)c1 [IPA, isophthalaldehyde, reference compound]
[1]; 0.3%, dissolved in 20% isopropanol, 20° C., 5 min (Table 11)
  Log Reductions/mL: Confluent
[1]; 0.3%, dissolved in 20% isopropanol, 20° C., 5 min (Table 15)
  Log Reductions/mL: Confluent
[1]
  Germicidal Efficacy: Poor

## O=Cc1ccccc1C=O [OPA, phthalaldehyde]
[1]; Mycolicibacter terrae, 0.5 h, 0.08%, 20° C., 30 min, read-out: Log Reductions/mL
  log reduction at 0.08 %: 3.1
[1]; Mycolicibacter terrae, 0.5 h, 0.10%, 20° C., 30 min, read-out: Log Reductions/mL
  log reduction at 0.1 %: 3.4
[1]; Mycolicibacter terrae, 0.5 h, 0.14%, 20° C., 30 min, read-out: Log Reductions/mL
  log reduction at 0.14 %: 5.8
[1]
  Germicidal Efficacy: Good
Solubility in water
  solubility in water: about 5 % by weight

## O=Cc1ccc(C=O)cc1 [TPA, terephthaladehyde, reference compound]
[1]; 0.2%, dissolved in 20% isopropanol, 20° C., 5 min
  Log Reductions/mL: Confluent
[1]
  Germicidal Efficacy: Poor

## O=CC(C=O)c1ccccc1 [phenyl-propanedial]
[1]; 0.4%, 20° C., 60 min
  Log Reductions/mL: Total Kill
[1]; 0.7%, 20° C., 15 min
  Log Reductions/mL: Total Kill
[1]; 1% solution, 5 minutes, 20° C.
  kill: more than 4 logs
[1]; Mycolicibacter terrae, 1 h, 0.3%, 20° C., 60 min, read-out: Log Reductions/mL
  log reduction at 0.3 %: 3.7
[1]; Mycolicibacter terrae, 1 h, 0.33%, 20° C., 60 min, read-out: Log Reductions/mL
  log reduction at 0.33 %: 3.7
Solubility in water
  solubility in water: about 1%

— patent US6891069B1, “Synthesis of 4-substituted phthalaldehyde” (Ethicon, Inc., priority 2004, dated 2005)
